Test system: oxidative stress
Test: oxidative stress in vitro model
Format: cell-based
Conditions: pterostilbene compared with resveratrol

With `Oc1ccc(C=Cc2cc(O)cc(O)c2)cc1` [resveratrol] the “treatment of oxidative stress” value was “comparable”.
